# Measured values reported in EP2226070B1, “Process for determining the optimal dosage of antivitamins K in anticoagulant therapy” (Puech, Roger, priority 2009, dated 2010).
# System: INR
# Assay: Correlation of optimal dosages between different vitamin K antagonists, established with the dosage determination process
# Type: in vivo, patient
# Details: for dose correspondant à 1/4 de comprimé de "Préviscan" (corrélation proportionnelle entre différents antivitamines K): dose equivalent to 1/4 tablet of Préviscan for the optimal anticoagulant dosage
# From the text: Ce procédé de détermination est original en ce qu'il comprend les étapes suivantes consistant : • (a) à enregistrer la valeur IO de l'INR optimal cible, • (b) à enregistrer les valeurs d'INR mesurées dans une période donnée T1 à partir d'un surdosage Dmaxi dudit antivitamine K fixé préalablement par le prescripteur au-dessus du dosage préconisé, afin de déterminer une première pente P1 des valeurs d'INR en fonction du temps T1, • (c) à partir de la pente P1, à extrapoler et à enregistrer une valeur Imaxi d'INR théoriquement atteinte à partir du jour où la valeur IO de l'INR cible est atteinte et au bout d'une période déterminée T0, • (d) à enregistrer les valeurs d'INR mesurées dans une période donnée T2 à partir d'un sous-dosage Dmini dudit antivitamine K fixé par le prescripteur au-dessous du dosage préconisé, afin de déterminer une deuxième pente P2 des valeurs d'INR en fonction du temps T2, • (e) à partir de la pente P2, à extrapoler et à enregistrer une valeur Imini d'INR théoriquement atteinte à partir du jour où la valeur IO de l'INR cible est atteinte et au bout de la même période déterminée T0, • (f) à calculer à partir de la différence entre les valeurs Imaxi et Imini d'INR théoriquement calculées, un facteur de correction de posologie dudit antivitamine K exprimé selon la formule suivante : F = (Imaxi -Imini)/(Dmaxi -Dmini) [formula] • (g) afin de déterminer à partir de la différence entre les valeurs I0 de l'INR cible optimal et de l'Imini de l'INR minimum calculé, et dudit facteur F de correction de posologie dudit antivitamine K, la posologie adéquate D0 permettant d'atteindre et de maintenir constante la valeur Io de l'INR cible fixée préalablement selon la relation suivante : D0 = Dmini + (I0 -Imini)/(F). [formula]
# C'est aussi à partir de son procédé de détermination de dosage optimal d'un antivitamine K, que le demandeur a pu établir également une corrélation proportionnelle entre différents antivitamines K (1/4 de comprimé de "Préviscan" correspond à 0,82 mg de "Sintrom", à 2 mg de "Coumadine" ou à 0,82 mg de "Apegmone") de sorte qu'à partir d'un dosage optimal d'un antivitamine K prescrit, il peut calculer le dosage optimal d'un autre antivitamine K en remplacement du premier.
smiles,measurement,setting,value
O=C1c2ccccc2C(=O)C1c1ccc(F)cc1 [Préviscan],dose de référence de la corrélation proportionnelle entre différents antivitamines K,reference dose of the proportional correlation,1/4
CC(=O)CC(c1ccccc1)c1c(O)c2ccccc2oc1=O (stereo not shown) [Coumadine],"dose correspondant à 1/4 de comprimé de ""Préviscan"" (corrélation proportionnelle entre différents antivitamines K)",,2 mg
O=c1oc2ccccc2c(O)c1C(CC(O)c1ccc(Cl)cc1)c1ccc(Cl)s1 (stereo not shown) [Apegmone],"dose correspondant à 1/4 de comprimé de ""Préviscan"" (corrélation proportionnelle entre différents antivitamines K)",,"0,82 mg"
CC(=O)CC(c1ccc([N+](=O)[O-])cc1)c1c(O)c2ccccc2oc1=O (stereo not shown) [Sintrom],"dose correspondant à 1/4 de comprimé de ""Préviscan"" (corrélation proportionnelle entre différents antivitamines K)",,"0,82 mg"
